According to patent US7645881B2, “Methods for treating hepatitis C” (PTC Therapeutics, Inc., priority 2004, dated 2010):

Tests used:
HCV replicon = experiment: microbe, parasite or virus in culture; type: cell-based; details: Hepatitis C virus, 48 h, read-out: Replicon IC50s μM

Compound | IC50 (HCV replicon) | melting point
CCc1c(C)nc2sc(C(=O)OC(C)(C)C)c(-c3ccc(OC)cc3)c2c1C [Compound 37, t-butyl 5-ethyl-3-(4-methoxy-phenyl)-4,6-dimethyl-thieno[2,3-b]pyridine-2-carboxylate] | > 2 µM | 
Cc1nc2sc(C(=O)OC(C)(C)C)c(N)c2c(C)c1OCCN(C)CCN(C)C [Compound 73] | 0.5 to 2 µM | 
CCc1c(C)nc2sc(C(=O)NCc3ccccc3)c(-c3ccc(OC)cc3)c2c1C [Compound 44] | > 2 µM | 
Cc1nc2sc(-c3nnc(-c4ccc(F)cc4)o3)c(N)c2c(C)c1C [Compound 10] | 0.5 to 2 µM | 320 to 322 °C
Cc1nc2sc(-c3nc(-c4ccccc4)no3)c(N)c2c(C)c1C [Compound 24, 4,5,6-trimethyl-2-(3-phenyl-[1,2,4]oxadiazol-5-yl)-thieno[2,3-b]pyridin-3-ylamine] | < 0.5 µM | 276 to 278 °C
Cc1nc2sc(-c3nnc(-c4cccc(F)c4)o3)c(N)c2c(C)c1C [Compound 8] | 0.5 to 2 µM | 300 to 302 °C
Cc1nc2sc(C(=O)OC(C)(C)C)c(N)c2c(C)c1OCCN1CCN(C)CC1 [Compound 71] | > 2 µM | 155.4 to 155.5 °C
Cc1nc2sc(C(=O)OC(C)(C)C)c(N)c2c(C)c1-c1ccccc1 [Compound 55] | > 2 µM | 212 to 213 °C
CCc1c(C)nc2sc(C(=O)OC(C)(C)C)c(-c3cccc(C#N)c3)c2c1C [Compound 36] | > 2 µM | 
CC(C)(C)c1cc(C(F)(F)F)c2c(N)c(C(N)=O)sc2n1 [Compound 2] | > 2 µM | 
Nc1c(C(=O)Nc2ccccc2)sc2nc3c(cc12)CCCCC3 [Compound 28] | > 2 µM | 
COc1ccccc1-c1noc(-c2sc3nc(C)c(C)c(C)c3c2N)n1 [Compound 20] | 0.5 to 2 µM | 244 to 245 °C
N#Cc1cccc(-c2sc3nc4c(c(-c5cccs5)c3c2C#N)CCCCC4)c1 [Compound 61] | > 2 µM | 159 to 162 °C
CCc1c(C)nc2sc(NC(=O)C3CCCC3)c(C#N)c2c1C [Compound 49, cyclopentanecarboxylic acid (3-cyano-5-ethyl-4,6-dimethyl-thieno[2,3-b]pyridin-2-yl)amide] | > 2 µM | 228 to 230 °C
CC(C)(C)OC(=O)c1sc2nc3c(c(-c4cccs4)c2c1N)CCCC3 [Compound 34] | > 2 µM | 
COc1ccccc1-c1nnc(-c2sc3nc(C)c(C)c(C)c3c2N)o1 [Compound 23] | 0.5 to 2 µM | 238 to 240 °C
CC(C)(C)OC(=O)c1sc2nc3c(c(-c4cccc(F)c4F)c2c1N)CCCCC3 [Compound 31] | > 2 µM | 
COCCN1CCN(CCOc2c(C)nc3sc(C(=O)OC(C)(C)C)c(N)c3c2C)CC1 [Compound 66] | > 2 µM | 79 to 81 °C
CCc1c(C)nc2sc(C(=O)OC(C)(C)C)c(N)c2c1C [Compound 3, tert-Butyl 3-amino-5-ethyl-4,6-dimethylthieno[2,3-B]pyridine-2-carboxylate] | 0.5 to 2 µM | 135 to 136 °C
CC(C)(C)OC(=O)c1sc2nc3c(c(-c4ccco4)c2c1N)CCC3 [Compound 33] | > 2 µM | 
Cc1nc2sc(C(=O)OC(C)(C)C)c(N)c2c(C)c1OCCN(C)C [Compound 72] | > 2 µM | 

Compound | IC50 (HCV replicon) | melting point
Cc1cc(-c2cccs2)c2c(N)c(C#N)sc2n1 [Compound 30] | > 2 µM | 
Cc1nc2sc(-c3nnc(-c4ccccc4F)o3)c(N)c2c(C)c1C [Compound 14] | < 0.5 µM | 287 to 288 °C
Cc1nc2sc(-c3ncc(-c4ccccc4)o3)c(N)c2c(C)c1C [Compound 26] | 0.5 to 2 µM | 284 to 285 °C
CCc1c(C)nc2sc(S(C)(=O)=O)c(C#N)c2c1C [Compound 54] | > 2 µM | 219 to 220 °C
Cc1nc2sc(-c3nnc(-c4ccccc4Cl)o3)c(N)c2c(C)c1C [Compound 15] | 0.5 to 2 µM | 284 to 286 °C
CCc1c(C)nc2sc(C(=O)OC(C)(C)C)c(-c3cccc(Cl)c3)c2c1C [Compound 43] | > 2 µM | 152.1 to 152.6 °C
Cc1nc2sc(-c3nc(-c4cccs4)no3)c(N)c2c(C)c1C [Compound 19] | < 0.5 µM | 281 to 282 °C
CCc1c(C)nc2sc(C(=O)OC(C)(C)C)c(-c3ccoc3)c2c1C [Compound 40] | > 2 µM | 111 to 111.5 °C
N#Cc1c(NC(=O)c2cccc(C(F)(F)F)c2)sc2nc3c(c(-c4cccs4)c12)CCCCC3 [Compound 58, N-(3-cyano-4-thiophen-2-yl-6,7,8,9-tetrahydro-5H-1-thia-10-aza-cyclohepta[f]inden-2-yl)-3-trifluoromethyl-benzamide] | > 2 µM | 226.9 to 227.1 °C
CCc1c(C)nc2sc(NC(=O)C(C)C)c(C#N)c2c1C [Compound 53] | > 2 µM | 189 to 190 °C
CCc1c(C)nc2sc(C(=O)OC(C)(C)C)c(-c3ccc(Cl)cc3)c2c1C [Compound 42] | > 2 µM | 117 to 118 °C
CCCCNc1cc(C)c2c(N)c(C(N)=O)sc2n1 [Compound 17] | 0.5 to 2 µM | 169 to 170 °C
CN1CCN(C(=O)c2sc3nc4c(c(-c5cccs5)c3c2N)CCCCC4)CC1 [Compound 47] | > 2 µM | 115 to 118 °C
Cc1nc2sc(-c3nnc(-c4cccc(Cl)c4)o3)c(N)c2c(C)c1C [Compound 11] | > 2 µM | 302 to 303 °C
CC(C)(C)OC(=O)c1sc2nc3c(c(-c4ccco4)c2c1N)CCCC3 [Compound 32] | > 2 µM | 
Cc1nc2sc(C(=O)OC(C)(C)C)c(N)c2c(C)c1OCCN1CCOCC1 [Compound 67, t-butyl 3-amino-4,6-dimethyl-5-(2-morpholin-4-yl-ethoxy)-thieno[2,3-b]pyridine-2-carboxylate] | > 2 µM | 102 to 104 °C
Cc1nc2sc(-c3nnc(-c4ccccn4)o3)c(N)c2c(C)c1C [Compound 16] | < 0.5 µM | 306 to 308 °C
CCc1c(C)nc2sc(C(C)=O)c(-n3cccc3)c2c1C [Compound 27] | > 2 µM | 145 to 147 °C
COc1ccc(Nc2sc3nc4c(c(-c5cccs5)c3c2C#N)CCCCC4)cc1 [Compound 64] | > 2 µM | 
Cc1nc2sc(-c3nc(COc4ccc(Cl)c(Cl)c4)no3)c(N)c2c(C)c1C [Compound 18] | 0.5 to 2 µM | 197 to 200 °C
CCc1c(C)nc2sc(C(=O)N3CCCCC3)c(-c3ccc(OC)cc3)c2c1C [Compound 41] | > 2 µM | 

Compound | IC50 (HCV replicon) | melting point
Cc1nc2sc(-c3noc(-c4cccs4)n3)c(N)c2c(C)c1C [Compound 22] | < 0.5 µM | 260 to 265 °C
N#Cc1c(-c2ccc3c(c2)OCO3)sc2nc3c(c(-c4cccs4)c12)CCCCC3 [Compound 62] | > 2 µM | 210 to 211 °C
Cc1cc(CO)c2c3c(sc2n1)C(=O)NC(c1ccccc1)N3 (centres unmarked) [Compound 38, 4-hydroxymethyl-2-methyl-6-phenyl-6,7-dihydro-5H-9-thia-1,5,7-triaza-fluoren-8-one] | > 2 µM | 
CC(C)(C)NC(=O)c1sc2nc3c(c(-c4cccs4)c2c1N)CCCCC3 [Compound 48] | > 2 µM | 184 to 185 °C
Cc1ccccc1-c1nnc(-c2sc3nc(C)c(C)c(C)c3c2N)o1 [Compound 13] | < 0.5 µM | 261 to 262 °C
COc1ccc(-c2sc3nc4c(c(-c5cccs5)c3c2C#N)CCCCC4)cc1 [Compound 63, 2-(4-methoxyphenyl)-4-thiophen-2-yl-6,7,8,9-tetrahydro-5H-1-thia-10-aza-cyclohepta[f]indene-3-carbonitrile] | > 2 µM | 179.2 to 179.6 °C
Cc1nc2sc(C(=O)OC(C)(C)C)c(N)c2c(C)c1OCCN1CCCCC1 [Compound 70] | 0.5 to 2 µM | 
Cc1nc2sc(-c3noc(-c4ccccc4)n3)c(N)c2c(C)c1C [Compound 21] | < 0.5 µM | 248 to 250 °C
Cc1nc2sc(C(=O)OC(C)(C)C)c(N)c2c(C)c1OCCN1CCN(CCCN(C)C)CC1 [Compound 69] | 0.5 to 2 µM | 
CCc1c(C)nc2sc(-c3nnc(-c4ccccc4)o3)c(N)c2c1C [Compound 6, 5-ethyl-4,6-dimethyl-2-(5-phenyl-[1,3,4]oxadiazol-2-yl)-thieno[2,3-b]pyridin-3-yl amine] | 0.5 to 2 µM | 306 to 307 °C
CCN1CCN(CCOc2c(C)nc3sc(C(=O)OC(C)(C)C)c(N)c3c2C)CC1 [Compound 74] | > 2 µM | 
CCc1c(C)nc2sc(C(=O)SC(C)(C)C)c(N)c2c1C [Compound 56] | > 2 µM | 
N#Cc1c(Br)sc2nc3c(c(-c4cccs4)c12)CCCCC3 [Compound 60] | > 2 µM | 196.4 to 196.7 °C
N#Cc1c(C(=O)Nc2ccccc2)sc2nc3c(c(-c4cccs4)c12)CCCCC3 [Compound 57] | > 2 µM | 215.3 to 215.7 °C
CCc1c(C)nc2sc(C(=O)OC(C)(C)C)c(-c3ccc4c(c3)OCO4)c2c1C [Compound 39] | > 2 µM | 151 to 152 °C
CCOC(=O)c1sc2nc3c(c(-c4ccco4)c2c1N)CCC3 [Compound 46] | > 2 µM | 157.6 to 157.7 °C
CC(C)(C)OC(=O)c1sc2nc3c(c(-c4cccs4)c2c1N)CCCCC3 [Compound 45, tert-butyl 3-amino-4-thiophen-2-yl-6,7,8,9-tetrahydro-5H-1-thia-10-aza-cyclohepta[f]indene-2-carboxylate] | > 2 µM | 202.9 to 203.1 °C
Cc1nc2sc(-c3nnc(-c4ccc(Cl)s4)o3)c(N)c2c(C)c1C [Compound 9] | 0.5 to 2 µM | 284 to 286 °C
CC1(C)Cc2c(c(N3CCOCC3)nc3sc(C(N)=O)c(N)c23)CO1 [Compound 4] | > 2 µM | 
Cc1nc2sc(C(=O)OC(C)(C)C)c(N)c2c(C)c1OCCN1CCCN(C)CC1 [Compound 68] | 0.5 to 2 µM | 
Nc1c(C(=O)Nc2ccc(Br)cc2)sc2nc3c(c(-c4ccco4)c12)CCCCC3 [Compound 51] | > 2 µM | 
